Measured values reported in PubChem BioAssay AID1552 (Sanford-Burnham Center for Chemical Genomics, 2009).
The source made the active and inactive calls. No rule for the calls is given here.

Target: Ubiquitin-conjugating enzyme E2 N (Homo sapiens) (UniProt P61088)
Experiment: NMR detection of UBE2N ligand binding – biophysical, purified protein (AID 1552)
Settings: NMR binding to purified UBE2N

Ubiquitin-conjugating enzyme E2 N (Homo sapiens), sequence (P61088 whole entry, looked up): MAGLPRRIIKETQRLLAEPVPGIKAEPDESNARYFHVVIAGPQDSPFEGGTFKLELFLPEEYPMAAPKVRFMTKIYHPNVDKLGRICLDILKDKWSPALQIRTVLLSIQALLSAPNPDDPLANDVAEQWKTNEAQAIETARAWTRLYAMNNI

SMILES | Kd
Cc1cc(C(=O)N2CCN(c3ncccn3)CC2)c(C)o1 | > 4 mM (inactive)
O=C(NCCO)c1ccccc1I | > 4 mM (inactive)
Cc1ccc(C)c(C(=O)NCc2ccncc2)c1 | > 4 mM (inactive)
Cn1c(C(=O)O)ccc1S(N)(=O)=O | > 4 mM (inactive)
Nc1cc(N)nc(SCc2cccnc2)n1 | > 4 mM (inactive)
NC(N)=Nc1nc2ccccc2o1 | > 4 mM (inactive)
Cc1scc(C(=O)Nn2cnnc2)c1-c1ccccc1 | > 4 mM (inactive)
CC(=O)NC1=C(N(C)C)C(=O)c2ccccc2C1=O | > 4 mM (inactive)
Cc1nc(-c2ccc(C(=O)N3CCOCC3)cc2)cs1 | > 4 mM (inactive)
COC(=O)c1scc(S(C)(=O)=O)c1-n1cccc1 | > 4 mM (inactive)
CCc1c(C)n([O-])c2c([n+]1=O)CCC2 | > 4 mM (inactive)
CC(=O)Nc1nnc(-c2ccccc2S(C)(=O)=O)o1 | > 4 mM (inactive)
O=C(CSc1ccnc(=O)[nH]1)NCc1ccccc1 | > 4 mM (inactive)
CN(C)S(=O)(=O)c1ccc(C(=O)NN)cc1 | > 4 mM (inactive)
Cc1cc(C)nc(/N=C(/N)Nc2cccc(F)c2)n1 | > 4 mM (inactive)
CC(=O)N1CCC(NC2CCCCCC2)CC1 | > 4 mM (inactive)
COC(=O)Cc1cc(=O)n(-c2ccccc2)[nH]1 | > 4 mM (inactive)
CN(C)C(=O)CSc1nc(N)cc(=O)[nH]1 | > 4 mM (inactive)
CN1CCN(c2ncnc3nc[nH]c23)CC1 | > 4 mM (inactive)
Cn1c(SCC(N)=O)nnc1-c1cccnc1 | > 4 mM (inactive)
COc1cc(-c2coc3cc(O[C@@H]4O[C@H](CO)[C@@H](O)[C@H](O)[C@H]4O)c(OC)c(O)c3c2=O)cc(O)c1OC | > 4 mM (inactive)
CC(=O)c1c(C)nc(-c2ccc(Cl)cc2Cl)n1O | > 4 mM (inactive)
CC(=O)Oc1ccc2c(c1OC(C)=O)OCC1(O)Cc3c(cc(OC(C)=O)c(OC(C)=O)c3OC(C)=O)C21 (stereo unspecified) | > 4 mM (inactive)

SMILES | Kd
c1ccc(-c2nnc(CNCc3ccco3)o2)cc1 | > 4 mM (inactive)
CN1C(=O)c2ccc(C(=O)NC3CCCCC3)cc2C1=O | > 4 mM (inactive)
CN(C)C(=S)Nc1nc2ccccc2s1 | > 4 mM (inactive)
Fc1ccc2onc(C3CCNCC3)c2c1 | > 4 mM (inactive)
O=C(O)Cn1nc(-c2ccccc2)c2ccccc2c1=O | > 4 mM (inactive)
O=C1CC(NCc2ccco2)C(=O)NN1 (stereo unspecified) | > 4 mM (inactive)
CCOC(=O)c1cc2ccccc2oc1=O | > 4 mM (inactive)
Cn1c(SCC(N)=O)nnc1-c1c[nH]c2ccccc12 | > 4 mM (inactive)
OCc1sccc1-n1cccc1 | > 4 mM (inactive)
Cn1c(=O)c2c(n(C)c1=O)=NC1(CCCCC1)N=2 | > 4 mM (inactive)
CC(=O)Nc1ccc(-c2cn3ccsc3n2)cc1 | > 4 mM (inactive)
OC[C@H]1O[C@@](CO)(O[C@@H]2O[C@H](CO)[C@@H](O)[C@H](O)[C@H]2O)[C@@H](O[C@@H]2O[C@H](CO)[C@@H](O)[C@H](O)[C@H]2O)[C@@H]1O | > 4 mM (inactive)
Cc1cc(C)n(-c2nc(C)nc(N)n2)n1 | > 4 mM (inactive)
NCc1cccc2c1OCCCO2 | > 4 mM (inactive)
CC1(C)CC2(C)N(N)C(=O)CN2C(=S)N1 (stereo unspecified) | > 4 mM (inactive)
O=C(Nc1ccncc1)c1c(F)cccc1F | > 4 mM (inactive)
Cn1cnc([N+](=O)[O-])c1Sc1ncnc2nc[nH]c12 | > 4 mM (inactive)
Clc1ncnc2[nH]ncc12 | > 4 mM (inactive)
Cn1nc(C(C)(C)C)cc1N | > 4 mM (inactive)
CCCCCC/C=C\CCCCCCCc1cccc(O)c1C(=O)O | > 4 mM (inactive)
COc1cc2c(cc1O)[C@@H](Cc1ccc(O)cc1)[N+](C)(C)CC2 | > 4 mM (inactive)
Cc1cccc(N2C(=O)CC(=O)NC2=O)c1 | > 4 mM (inactive)
Cc1cc(=O)n(C(N)=S)[nH]1 | > 4 mM (inactive)
